Assay results as given in patent US20260274851A1, “MODULATORS OF TRPML, THEIR COMPOSITIONS AND METHODS OF USE” (Caraway Therapeutics, Inc., priority 2023, published 2026).

Columns and labels:
Human TRPML3 = biological target: T1, Human TRPML3 (Homo sapiens, UniProt Q8TDD5); experiment: Fluorescent TRPML3 assay (as for TRPML1); type: cell-based; details: as TRPML1 assay with TRPML3 subtype
T1 construct: expressed in transfected cells
T1 sequence (Q8TDD5 1-553): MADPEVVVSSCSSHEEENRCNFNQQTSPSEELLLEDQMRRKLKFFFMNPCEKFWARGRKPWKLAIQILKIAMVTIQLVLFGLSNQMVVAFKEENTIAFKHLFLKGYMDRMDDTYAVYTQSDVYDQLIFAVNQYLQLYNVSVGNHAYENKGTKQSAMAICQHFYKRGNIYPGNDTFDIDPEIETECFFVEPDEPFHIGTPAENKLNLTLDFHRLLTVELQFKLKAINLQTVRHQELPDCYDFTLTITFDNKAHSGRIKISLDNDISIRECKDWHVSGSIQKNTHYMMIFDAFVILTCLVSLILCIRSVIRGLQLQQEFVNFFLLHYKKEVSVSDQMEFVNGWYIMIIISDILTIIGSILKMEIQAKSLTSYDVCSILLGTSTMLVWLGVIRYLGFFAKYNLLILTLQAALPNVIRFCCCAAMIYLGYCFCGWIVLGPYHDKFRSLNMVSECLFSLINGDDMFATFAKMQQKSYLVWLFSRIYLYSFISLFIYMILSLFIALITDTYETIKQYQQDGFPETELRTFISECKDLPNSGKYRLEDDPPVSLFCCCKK
Method: (§1) HEK-293 Trex cells were stably transfected with a construct consisting of the human coding sequence for TRPML1 cloned into the tet-inducible plasmid pCDNA5 T/O. Mutations were introduced into the TRPML1 sequence to facilitate expression on the cell surface (Silvia Vergarajauregui. Rosa Puertollano Traffic. 2006 March: 7(3): 337-353). Briefly, the cells are cultured in 150 mm round tissue culture dishes containing 20 mL of media. The day before the assay the cells are rinsed with DPBS—Ca —Mg and then treated briefly with Trypsin-EDTA. The Trypsin-EDTA is diluted with growth media, and cells are counted. 38×10^6 cells are re-plated into 150 mm round tissue culture dishes in media containing 0.5 g/mL doxycycline to induce expression of hTRPML1.
(§2) The day of the experiment cells are lifted from the plates as above and collected by centrifugation. The cells are then suspended in dye loading buffer consisting of Ringer's solution supplemented with 0.1% Pluronic Acid and 1 micromolar Fluo4-AM dye. Cells are loaded for ~60 minutes in the dark with occasional mixing. The cells are collected by centrifugation, the loading media aspirated, and the cells resuspended in 25 mL Ringer's solution and incubated ~60 minutes in the dark. The cells are again collected by centrifugation, rinsed in Ringer's Solution and resuspended to 0.2×10^6 cells/mL in modified Ringer's solution containing 10 mM calcium.
(§3) Compounds are dissolved to a concentration of 10 millimolar with DMSO. Compound plates are created by dispensing compounds into 384 well black wall clear bottom plates (Greiner 781091). Positive and negative controls are included on each plate. Typically, different amounts of each compound are tested ranging from 100 nanoMoles (20 micromolar final concentration) decreasing in half-log steps to 31 picoMoles (6 nanomolar final concentration). Each concentration is typically tested in triplicate.
(§4) 50 microliters of dye-loaded cells are dispensed into each well of the compound assay plate created above. The fluorescence in each well is then determined with an excitation wavelength of 480 nm and an emission wavelength of 540 nm using either a Molecular Devices SpectraMax multimode plate reader or a Hamamatsu FDSS/uCell plate imager.
(§5) The resulting fluorescence for each well is exported as an ascii file and loaded into our LIMS for analysis. The percent activity of each compound at each concentration is determined by comparison to the positive and negative control wells included in each plate.
Assays for TRPML2 and TRPML3 were performed as above for TRPML1, by substituting the appropriate TRPML2 or TRPML3 subtype for the TRPML1.
(§6) EC50 values were calculated using a non-linear regression of Prism. In the table, “A” indicates an EC50 of less than 100 nM, “B” indicates an EC50 range from 100 nM to 500 nM; “C” indicates an EC50 range from 500 nM to 2 μM; and “D” indicates an EC50 greater than 2 μM.

Human TRPML1 = Human TRPML1 (Homo sapiens, UniProt Q9GZU1); experiment: Fluorescent TRPML1 assay (Fluo4 calcium fluorescence, HEK-293 Trex cells); type: cell-based; details: HEK-293 Trex cells expressing surface-directed hTRPML1, Fluo4 fluorescence
Chain of Human TRPML1 (Q9GZU1 whole entry L15A/L16A/L577A/L578A, form open): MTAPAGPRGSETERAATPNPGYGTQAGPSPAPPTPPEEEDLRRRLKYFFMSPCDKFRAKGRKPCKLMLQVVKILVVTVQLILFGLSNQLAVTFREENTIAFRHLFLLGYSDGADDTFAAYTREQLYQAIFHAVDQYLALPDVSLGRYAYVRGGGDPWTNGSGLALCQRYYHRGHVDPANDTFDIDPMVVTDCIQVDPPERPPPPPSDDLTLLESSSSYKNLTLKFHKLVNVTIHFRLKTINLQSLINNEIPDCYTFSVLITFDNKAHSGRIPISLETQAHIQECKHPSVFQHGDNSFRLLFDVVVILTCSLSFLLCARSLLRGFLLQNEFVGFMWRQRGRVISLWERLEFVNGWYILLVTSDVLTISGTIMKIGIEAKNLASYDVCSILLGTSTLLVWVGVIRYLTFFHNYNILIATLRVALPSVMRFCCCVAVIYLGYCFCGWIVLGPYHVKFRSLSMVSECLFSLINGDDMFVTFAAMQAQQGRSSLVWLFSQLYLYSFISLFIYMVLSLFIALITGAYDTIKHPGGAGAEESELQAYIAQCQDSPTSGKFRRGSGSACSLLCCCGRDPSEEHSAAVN
Method: as §1, §2, §3, §4, §5, §6

Human TRPML2 = biological target: T2, Human TRPML2 (Homo sapiens, UniProt Q8IZK6); experiment: Fluorescent TRPML2 assay (as for TRPML1); type: cell-based; details: as TRPML1 assay with TRPML2 subtype
T2 construct: expressed in transfected cells
T2 sequence (Q8IZK6 1-566): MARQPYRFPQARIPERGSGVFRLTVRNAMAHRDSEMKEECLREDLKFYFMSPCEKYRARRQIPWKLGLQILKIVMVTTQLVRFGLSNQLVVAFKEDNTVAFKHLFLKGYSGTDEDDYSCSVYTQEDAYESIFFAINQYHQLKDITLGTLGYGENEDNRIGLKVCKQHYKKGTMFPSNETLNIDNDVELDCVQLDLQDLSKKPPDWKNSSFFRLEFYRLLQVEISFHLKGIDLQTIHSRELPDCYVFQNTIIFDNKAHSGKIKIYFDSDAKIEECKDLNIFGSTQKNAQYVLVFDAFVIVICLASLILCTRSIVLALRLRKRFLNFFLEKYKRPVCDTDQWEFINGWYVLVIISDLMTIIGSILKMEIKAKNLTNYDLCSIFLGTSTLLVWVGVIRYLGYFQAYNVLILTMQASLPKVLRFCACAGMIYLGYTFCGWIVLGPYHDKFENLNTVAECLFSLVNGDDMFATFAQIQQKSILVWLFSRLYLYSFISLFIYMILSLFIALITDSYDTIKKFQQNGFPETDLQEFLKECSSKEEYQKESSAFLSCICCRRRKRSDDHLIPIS
Method: as §1, with “38×10^6 cells are re-plated into 150 mm round tissue culture dishes in media containing 0.5 g/mL doxycycline to induce expression of hTRPML1.” left out
as §4
The resulting fluorescence for each well is exported as an ascii file and loaded into our LIMS for analysis. The percent activity of each compound at each concentration is determined by comparison to the positive and negative control wells included in each plate. […]
EC50 values were calculated using a non-linear regression of Prism. […]

TRPMLs = details: high concentrations needed; background statement; cited from earlier work

SMILES	EC50 (Human TRPML3)	EC50 (Human TRPML1)	EC50 (Human TRPML2)	Concentration needed to effectively activate TRPMLs (TRPMLs)
C[C@@H]1CN(c2ncnc3c2c(-c2ccccc2)cn3-c2cccc(C#N)c2)[C@@H](C)CN1C(=O)C(C)(C)O [Compound 101, 3-(4-((2S,5R)-4-(2-hydroxy-2-methylpropanoyl)-2,5-dimethylpiperazin-1-yl)-5-phenyl-7H-pyrrolo[2,3-d]pyrimidin-7-yl)benzonitrile]	> 2000 nM	100 to 500 nM		
C[C@@H]1CN(c2ncnc3c2c(-c2ccccc2F)cn3-c2cccc(C#N)c2)[C@@H](C)CN1C(=O)C(C)(C)O [Compound 102, 3-(5-(2-fluorophenyl)-4-((25,5R)-4-(2-hydroxy-2-methylpropanoyl)-2,5-dimethylpiperazin-1-yl)-7H-pyrrolo[2,3-d]pyrimidin-7-yl)benzonitrile]	> 2000 nM	100 to 500 nM		
COC(C)(C)C(=O)N1C[C@H](C)N(c2ncnc3c2c(-c2ccccc2F)cn3-c2cccc(F)c2)C[C@H]1C [Compound 103, 1-((2R,5S)-4-(5-(2-fluorophenyl)-7-(3-fluorophenyl)-7H-pyrrolo[2,3-d]pyrimidin-4-yl)-2,5-dimethylpiperazin-1-yl)-2-methoxy-2-methylpropan-1-one]	< 100 nM	< 100 nM	100 to 500 nM	
C[C@@H]1CN(c2ncnc3c2c(-c2ccccc2F)cn3-c2cc(F)cc(F)c2)[C@@H](C)CN1C(=O)C(C)(C)O [Compound 104, 1-((2R,5S)-4-(7-(3,5-difluorophenyl)-5-(2-fluorophenyl)-7H-pyrrolo[2,3-d]pyrimidin-4-yl)-2,5-dimethylpiperazin-1-yl)-2-hydroxy-2-methylpropan-1-one]	> 2000 nM	500 to 2000 nM		
C[C@@H]1CN(c2ncnc3c2c(-c2ccccc2F)cn3-c2cccc(Cl)c2)[C@@H](C)CN1C(=O)C(C)(C)O [Compound 105, 1-((2R,5S)-4-(7-(3-chlorophenyl)-5-(2-fluorophenyl)-7H-pyrrolo[2,3-d]pyrimidin-4-yl)-2,5-dimethylpiperazin-1-yl)-2-hydroxy-2-methylpropan-1-one]	500 to 2000 nM	100 to 500 nM		
CC1CC(C)(C)N(C(=O)CN2C(=O)c3ccccc3C2=O)c2ccccc21 (stereo not drawn) [ML-SA1]				~ 10 μM
